Data as given in patent US20150352108A1, “AMINO-PYRIMIDINE COMPOUNDS AS INHIBITORS OF TBK1 AND/OR IKK EPSILON” (Alzheimer's Institute of America, priority 2009, published 2015).
Read-outs that look alike come from different tables or passages of the source.

Key:
IKKε = biological target: T1, IKKε (Homo sapiens, UniProt Q14164); test: In-vitro IKKε kinase assay ([γ33]ATP filter-plate); type: biochemical
T1 construct: His-tag; made in house; host or cells: Sf9 insect cells
T1 sequence (Q14164 1-716): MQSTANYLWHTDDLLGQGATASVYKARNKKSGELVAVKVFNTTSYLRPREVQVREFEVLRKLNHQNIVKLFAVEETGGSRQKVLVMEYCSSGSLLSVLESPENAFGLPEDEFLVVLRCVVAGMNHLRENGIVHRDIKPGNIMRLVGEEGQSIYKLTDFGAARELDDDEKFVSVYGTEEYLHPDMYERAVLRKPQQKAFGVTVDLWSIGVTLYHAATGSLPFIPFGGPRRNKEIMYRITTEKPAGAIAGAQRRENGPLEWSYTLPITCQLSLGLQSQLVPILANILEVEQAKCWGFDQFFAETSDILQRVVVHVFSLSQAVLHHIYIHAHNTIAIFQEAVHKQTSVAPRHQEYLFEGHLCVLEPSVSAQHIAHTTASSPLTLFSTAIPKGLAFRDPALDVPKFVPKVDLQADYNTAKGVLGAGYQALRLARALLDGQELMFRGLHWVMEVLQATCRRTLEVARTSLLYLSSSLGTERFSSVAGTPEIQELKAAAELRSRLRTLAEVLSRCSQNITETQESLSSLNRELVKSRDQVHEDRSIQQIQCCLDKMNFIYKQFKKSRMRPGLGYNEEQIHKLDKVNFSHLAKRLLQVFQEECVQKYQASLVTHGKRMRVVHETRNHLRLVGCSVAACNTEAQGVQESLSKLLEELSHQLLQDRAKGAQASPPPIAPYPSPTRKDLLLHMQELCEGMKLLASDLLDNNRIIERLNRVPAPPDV
Procedure, shortened: (§1)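 Phosphorylation of casein or myelin basic protein was counted by P-81 filter capture after 30-45 min reactions stopped with phosphoric acid, with counts normalized to DMSO after background subtraction. ATP was twice Km: 60 μM for TBK1 and 32 μM for IKKε, plus [γ33]ATP. Sf9-expressed His-tag enzymes were used at normal/sensitized levels of 0.1/0.02 μg/ml (TBK1) and 0.1/0.015 μg/ml (IKKε).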

TBK1 = biological target: T2, TBK1 (Homo sapiens, UniProt Q9UHD2); test: In-vitro TBK1 kinase assay ([γ33]ATP filter-plate); type: biochemical
T2 construct: His-tag; made in house; host or cells: Sf9 insect cells
T2 sequence (Q9UHD2 1-729): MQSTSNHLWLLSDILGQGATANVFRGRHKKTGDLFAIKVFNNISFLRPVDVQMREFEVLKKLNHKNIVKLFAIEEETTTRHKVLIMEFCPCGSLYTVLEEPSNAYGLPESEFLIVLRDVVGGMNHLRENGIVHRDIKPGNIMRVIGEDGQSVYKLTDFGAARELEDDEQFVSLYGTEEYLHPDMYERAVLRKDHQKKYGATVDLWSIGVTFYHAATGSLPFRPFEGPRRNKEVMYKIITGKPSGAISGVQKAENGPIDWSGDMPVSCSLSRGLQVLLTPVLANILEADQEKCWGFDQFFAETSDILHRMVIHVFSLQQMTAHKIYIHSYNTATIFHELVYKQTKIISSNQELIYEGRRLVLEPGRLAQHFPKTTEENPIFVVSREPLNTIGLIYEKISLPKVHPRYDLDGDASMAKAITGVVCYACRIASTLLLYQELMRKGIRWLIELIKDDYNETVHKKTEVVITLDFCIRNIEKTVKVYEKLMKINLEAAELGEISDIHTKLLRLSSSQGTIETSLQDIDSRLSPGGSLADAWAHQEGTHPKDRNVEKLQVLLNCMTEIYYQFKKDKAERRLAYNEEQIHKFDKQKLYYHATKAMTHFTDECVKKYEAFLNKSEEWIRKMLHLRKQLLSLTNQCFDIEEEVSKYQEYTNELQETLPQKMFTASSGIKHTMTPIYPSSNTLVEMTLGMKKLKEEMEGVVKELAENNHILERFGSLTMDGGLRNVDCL
Procedure, shortened: as §1

[1] = text bins, read-out: IC50 for inhibition of the kinase activity of IKKε
[2] = text bins, read-out: IC50 for inhibition of the kinase activity of TBK1

IC50 (IKKε; [1])	IC50 (TBK1; [2])	IC50 (IKKε; Table 3, read-out: IKKε IC50)	IC50 (TBK1; Table 3, read-out: TBK1 IC50)	Structure (SMILES)
5 to 50 nM	10 to 100 nM	–	–	COC(=O)C(C)Oc1ccc(-c2ccnc(Nc3ccc(N4CCOCC4)cc3)n2)cc1C#N (stereo not shown) [Example 63, Methyl 2-[2-cyano-4-(2-{[4-(morpholin-4-yl)phenyl]amino}pyrimidin-4-yl)phenoxy] propanoate]
5 to 50 nM	10 to 100 nM	–	–	N#Cc1cc(-c2ccnc(Nc3ccc(N4CCOCC4)cc3)n2)ccc1OCC1CCCNC1 (stereo not shown) [Example 94]
< 5 nM	< 10 nM	–	–	CC(C)Nc1ccc(-c2ccnc(Nc3ccc(N4CCOCC4)cc3)n2)cc1C#N [Example 211, 5-(2-{[4-(Morpholin-4-yl)phenyl]amino}pyrimidin-4-yl)-2-(propan-2-ylamino)benzonitrile]
5 to 50 nM	10 to 100 nM	–	–	COc1cc(NC(=O)NC2CCN(C(C)=O)CC2)cc(Nc2nccc(-c3ccc(OC)c(C#N)c3)n2)c1 [compound 344, 1-(1-Acetylpiperidin-4-yl)-3-(3-{[4-(3-cyano-4-methoxyphenyl)pyrimidin-2-yl]amino}-5-methoxyphenyl)urea]
5 to 50 nM	10 to 100 nM	–	–	COc1cc(NC(=O)NCCO)cc(Nc2nccc(-c3ccc(OC)c(C#N)c3)n2)c1 [compound 295, 1-(3-{[4-(3-Cyano-4-methoxyphenyl)pyrimidin-2-yl]amino}-5-methoxyphenyl)-3-(2-hydroxyethyl)urea]
5 to 50 nM	10 to 100 nM	–	–	N#Cc1cc(-c2ccnc(Nc3ccc(N4CCOCC4)cc3)n2)ccc1OCCC1CCN(C(=O)CO)CC1 [compound 457, 2-{2-[1-(hydroxyacetyl)piperidin-4-yl]ethoxy}-5-(2-{[4-(morpholin-4-yl)phenyl]amino}pyrimidin-4-yl)benzonitrile]
5 to 50 nM	10 to 100 nM	–	–	COc1ccc(-c2ccnc(Nc3ccc(S(=O)(=O)NCCCN(C)C)c(OC)c3)n2)cc1C#N [compound 375, 4-{[4-(3-Cyano-4-methoxyphenyl)pyrimidin-2-yl]amino}-N-[3-(dimethylamino)propyl]-2-methoxybenzene-sulfonamide]
5 to 50 nM	10 to 100 nM	–	–	CC(C)(COc1ccc(-c2ccnc(Nc3ccc(N4CCOCC4)cc3)n2)cc1C#N)C(=O)O [compound 460, 3-[2-cyano-4-(2-{[4-(morpholin-4-yl)phenyl]amino}pyrimidin-4-yl)phenoxy]-2,2-dimethylpropanoic acid]
< 5 nM	< 10 nM	–	–	COc1ccc(Nc2nccc(-c3ccc(O)c(C#N)c3)n2)cc1OC [Example 118]
< 5 nM	< 10 nM	0.4 nM	0.3 nM	N#Cc1cc(-c2ccnc(Nc3ccc(N4CCOCC4)cc3)n2)ccc1OC1CCN(C(=O)CO)CC1 [Example 190, 2-{[1-(Hydroxyacetyl)piperidin-4-yl]oxy}-5-(2-{[4-(morpholin-4-yl)phenyl]amino}pyrimidin-4-yl)benzonitrile]
5 to 50 nM	< 10 nM	–	–	N#Cc1cc(-c2ccnc(Nc3ccc(NC(=O)N4CCOCC4)cc3)n2)ccc1OC1CCOCC1 [Example 13, N-[4-({4-[3-cyano-4-(tetrahydro-2H-pyran-4-yloxy)phenyl]pyrimidin-2-yl}amino)phenyl] morpholin-4-carboxamide]
5 to 50 nM	10 to 100 nM	–	–	COc1cc(C#N)cc(-c2ccnc(Nc3cccc(NC(C)=O)c3)n2)c1 [Example 214, N-(3-{[4-(3-Cyano-5-methoxyphenyl)pyrimidin-2-yl]amino}phenyl) acetamide]
< 5 nM	< 10 nM	–	–	COc1ccc(-c2ccnc(Nc3ccc(N4CCOCC4)c(Cl)c3)n2)cc1C#N [Example 98]
5 to 50 nM	10 to 100 nM	–	–	COc1ccc(-c2ccnc(Nc3cccc(S(N)(=O)=O)c3)n2)cc1C#N [compound 346, 3-{[4-(3-Cyano-4-methoxyphenyl)pyrimidin-2-yl]amino} benzenesulfonamide]
5 to 50 nM	10 to 100 nM	–	–	CC(C)NC(=O)Nc1ccc(-c2ccnc(Nc3ccc(N4CCOCC4)cc3)n2)cc1C#N [Example 60, 1-[2-cyano-4-(2-{[4-(morpholin-4-yl)phenyl]amino}pyrimidin-4-yl)phenyl]-3-propan-2-ylurea]
< 5 nM	< 10 nM	–	–	COC1CN(C(=O)c2ccc(Nc3nccc(-c4ccc(NC(=O)C5CC5)c(C#N)c4)n3)cc2)C1 [compound 665, N-{2-Cyano-4-[2-({4-[(3-methoxyazetidin-1-yl)carbonyl]phenyl}amino)pyrimidin-4-yl]phenyl} cyclopropane-carboxamide]
5 to 50 nM	< 10 nM	–	–	CN1CCN(S(=O)(=O)c2ccc(Nc3nccc(-c4ccc(OC5CCOCC5)c(C#N)c4)n3)cc2)CC1 [Example 284, 5-[2-({4-[(4-methylpiperazin-1-yl)sulfonyl]phenyl}amino)pyrimidin-4-yl]-2-(tetrahydro-2H-pyran-4-yloxy)benzonitrile]
50 to 500 nM	10 to 100 nM	–	–	COc1ccc(-c2ccnc(Nc3cccc(Cl)c3)n2)cc1C#N [Example 260, 5-{2-[(3-Chlorophenyl)amino]pyrimidin-4-yl}-2-methoxybenzonitrile]
5 to 50 nM	10 to 100 nM	–	–	COc1cc(Nc2nccc(-c3ccc(OC(C)C)c(C#N)c3)n2)cc(OC)c1 [Example 272, 5-{2-[(3,5-Dimethoxyphenyl)amino]pyrimidin-4-yl}-2-(propan-2-yloxy)benzonitrile]
5 to 50 nM	10 to 100 nM	–	–	CC(C)C(=O)Nc1ccc(-c2ccnc(Nc3ccc(CC(=O)NCCCN4CCOCC4)cc3)n2)cc1C#N [compound 420, N-[2-cyano-4-(2-{[4-(2-{[3-(morpholin-4-yl)propyl]amino}-2-oxoethyl)phenyl]amino}pyrimidin-4-yl)phenyl]-2-methylpropanamide]
< 5 nM	< 10 nM	–	–	COc1cc(Nc2nccc(-c3ccc(NC(=O)C(C)C)c(C#N)c3)n2)ccc1N1CCNC(=O)C1 [Example 88, N-[2-Cyano-4-(2-{[3-methoxy-4-(3-oxopiperazin-1-yl)phenyl]amino}pyrimidin-4-yl)phenyl]-2-methylpropanamide]
5 to 50 nM	10 to 100 nM	–	–	COc1cc(Nc2nccc(-c3ccc(OC4CCN(S(C)(=O)=O)CC4)c(C#N)c3)n2)ccc1N1CCOCC1 [Example 79, 5-(2-{[3-methoxy-4-(morpholin-4-yl)phenyl]amino}pyrimidin-4-yl)-2-{[1-(methylsulfonyl)piperidin-4-yl]oxy}benzonitrile]
5 to 50 nM	< 10 nM	–	–	N#Cc1cc(-c2ccnc(Nc3ccc(S(=O)(=O)N4CCOCC4)cc3)n2)ccc1OC1CCOCC1 [compound 363, 5-(2-{[4-(morpholin-4-ylsulfonyl)phenyl]amino}pyrimidin-4-yl)-2-(tetrahydro-2H-pyran-4-yloxy)benzonitrile]
< 5 nM	< 10 nM	–	–	N#Cc1cc(-c2ccnc(Nc3ccc(F)c(OCCN4CCNCC4)c3)n2)ccc1OCC1CC1 [compound 654, 2-(Cyclopropylmethoxy)-5-[2-({4-fluoro-3-[2-(piperazin-1-yl)ethoxy]phenyl}amino)pyrimidin-4-yl]benzonitrile]
5 to 50 nM	10 to 100 nM	–	–	CC(C)C(=O)Nc1ccc(-c2ccnc(Nc3cccc(CC(=O)N4CCOCC4)c3)n2)cc1C#N [compound 421, N-{2-cyano-4-[2-({3-[2-(morpholin-4-yl)-2-oxoethyl]phenyl}amino)pyrimidin-4-yl]phenyl}-2-methylpropanamide]
